Measured values published in patent US12569479B2 (priority 2016, dated 2026).
Read-outs that look alike come from different tables or passages of the source.

Tests used:
[1] = system: dextromethorphan metabolism (dextromethorphan/dextrorphan metabolic ratio); details: human, in vivo, 3 h
Method: (§1) Plasma concentrations of dextromethorphan and dextrorphan 3 hours after dosing were used, with a dextromethorphan/dextrorphan ratio of 0.3 or greater indicating a poor metabolizer phenotype.

[2] = system: metabolism of dextromethorphan to dextrorphan in human liver microsomes; assay: Inhibition of the metabolism of dextromethorphan in human liver microsomes; details: human, human liver microsomes, pH 7.4, probe dextromethorphan (5 μM)
Method: (§2) The ability of various antidepressant compounds to inhibit the metabolism of dextromethorphan was examined using human liver microsomes.
(§3) After optimal incubation at 37° C., the reactions were terminated by addition of methanol containing internal standard for analytical quantification. The quenched samples were incubated at 4° C. for 10 minutes and centrifuged at 4° C. for 10 minutes. The supernatant was removed, and the metabolite of dextromethorphan (dextrorphan) was analyzed by LC-MS/MS.

[3] = human, in vivo
[4] = system: patients with agitation associated with Alzheimer's disease; details: both, human, in vivo, 5 weeks
Method: (§4) A Phase 2/3 randomized, double-blind, controlled, multicenter, U.S. clinical trial was conducted to evaluate the efficacy and safety of DM/BU in patients with agitation associated with Alzheimer's disease. […] Subsequently, patients were randomized in a 1:1 ratio to receive DM/BU or placebo. […] The minimum score on the CMAI is 29, corresponding to the total absence of symptoms, with higher scores corresponding to greater agitation. The primary endpoint of the study was the change from baseline in the CMAI total score at Week 5. P-values were calculated based on least square mean estimates.

[5] = system: patients with treatment resistant depression (TRD); assay: Phase 3 randomized, double-blind, active controlled trial of DM/BU in treatment resistant depression
From the text: Inclusion criteria for the open-label period included males or females 18-65 years of age, a history of inadequate response to 1 or 2 prior antidepressant treatments, established by the Antidepressant Treatment Response Questionaire (ATRQ), and a Hamilton Depression Rating Scale (HAMD-17) total score of ≥18. Inclusion criteria for the double-blind period included inadequate response to 2 or 3 prior antidepressant treatments, including open-label period failure. Exclusion criteria included a history of electroconvulsive therapy, vagus nerve stimulation, transcranial magnetic stimulation, or any experimental central nervous system treatment during the current episode or in the past 6 months, schizophrenia, bipolar disorder, obsessive compulsive disorder, psychiatric symptoms secondary to any other general medical condition.
The change in depressive symptoms over time was measured using the Montgomery-Asberg Depression Rating Scale (MADRS) and the Quick Inventory of Depressive Symptomatology-Self-Rated (QIDS-SR-16). The primary endpoint was the change from baseline in the MADRS after 6 weeks of treatment. The key secondary endpoints were the change from baseline in the MADRS after 1 week of treatment, after 2 weeks of treatment, the average change over entire 6-week double-blind treatment period, and the Sheehan Disability Scale (SDS). Other pre-specified secondary efficacy variables included the Cognitive subscale of the Massachusetts General Hospital Cognitive and Physical Functioning Questionnaire (CPFQ), and the Hamilton Anxiety Scale (HAM-A).

[6] = system: adult patients with moderate to severe major depressive disorder (MDD); assay: Phase 2 randomized, double-blind, active-controlled trial of DM/BU in major depressive disorder; format: in vivo, human; details: twice daily for 6 weeks; DM/BU 45 mg/105 mg or bupropion 105 mg
Method: The changes from baseline in the Montgomery-Asberg Depression Rating Scale (MADRS) total score over the 6-week treatment period were calculated at each time point and averaged.

[7] = system: daily smokers using 10 or more cigarettes per day (nicotine addiction); assay: Phase 2 randomized, double-blind, active-controlled study of DM/BU for smoking cessation treatment; format: in vivo, human
From the text: Enrolled subjects were daily smokers using 10 or more cigarettes per day.
The primary outcome measure was the change in smoking intensity, measured using the number of cigarettes smoked per day, assessed via daily smoking diaries.

[8] = system: patients with agitation associated with Alzheimer's disease; assay: Phase 2/3 randomized, double-blind, controlled trial of DM/BU in agitation associated with Alzheimer's disease
Method: as §4

[9] = system: metabolism of dextromethorphan in human liver microsomes; assay: Inhibition of the metabolism of dextromethorphan in human liver microsomes; details: read-out: Mean IC50; human liver microsomes 0.5 mg/mL, dextromethorphan 5 μM, 37° C.; dextrorphan formation
Method: as §2, §3

[10] = system: metabolism of dextromethorphan in human liver microsomes
Method: as §2, §3

[11] = system: dextromethorphan metabolism (dextromethorphan/dextrorphan metabolic ratio); assay: Phenotypic determination of dextromethorphan metabolizer status (dextromethorphan/dextrorphan metabolic ratio); details: Day 8; 3 hours after dosing
Method: as §1

[12] = Pharmacokinetic study of dextromethorphan (DM) alone or DM in combination with bupropion, plasma concentrations by LC-MS/MS; details: for Cmax: Dextromethorphan Cmax; for average plasma concentration: Day 8, after bupropion administration
[13] = system: metabolism of dextromethorphan to dextrorphan in human liver microsomes; assay: in vitro; details: pH 7.4
Method: as §2, §3

[14] = DM/BU 45 mg/105 mg or bupropion 150 mg twice daily
[15] = Open-label Period, bupropion 150 mg twice daily

Structure (SMILES): CC(NC(C)(C)C)C(=O)c1cccc(Cl)c1.Cl (racemic) [Bupropion]
- subjects converted to poor metabolizer status [1]: 100%
- IC50 [2]: 9.1 µM
- reduction in mean dextrorphan AUC0-12 [3]: ~55%
- reduction in mean dextrorphan Cmax [3]: ~78%
- Diarrhea, number of subjects [4]: 3 subjects
- Discontinuation due to AEs, number of subjects [4]: 1 subjects
- Dizziness, number of subjects [4]: 5 subjects
- Falls, % of subjects [4]: (14.3%)
- Falls, number of subjects [4]: 7 subjects
- Fatigue, % of subjects [4]: (10.2%)
- Fatigue, number of subjects [4]: 5 subjects
- Headache, % of subjects [4]: (6.1%)
- Headache, number of subjects [4]: 3 subjects
- Insomnia, % of subjects [4]: (6.1%)
- Insomnia, number of subjects [4]: 3 subjects
- Serious AEs, number of subjects [4]: 4 subjects
- Somnolence, number of subjects [4]: 2 subjects
- Subjects with any TEAE, % of subjects [4]: (61.2%)
- Subjects with any TEAE, number of subjects [4]: 30 subjects
- mean reduction in MADRS averaged over the entire 6-week treatment period [5, 14]: 6.7
- mean reduction in QIDS-SR-16 averaged over the entire 6-week treatment period [5, 14]: 2.3
- Anxiety, number of subjects ([5]; Double-blind Period): 0 subjects
- Any TEAE, % of subjects ([5]; Double-blind Period): (39.1%)
- Any TEAE, number of subjects ([5]; Double-blind Period): 61 subjects
- Constipation, % of subjects ([5]; Double-blind Period): (1.9%)
- Constipation, number of subjects ([5]; Double-blind Period): 3 subjects
- Dizziness, number of subjects ([5]; Double-blind Period): 0 subjects
- Dry mouth, % of subjects ([5]; Double-blind Period): (1.9%)
- Dry mouth, number of subjects ([5]; Double-blind Period): 3 subjects
- Headache, % of subjects ([5]; Double-blind Period): (4.5%)
- Headache, number of subjects ([5]; Double-blind Period): 7 subjects
- Insomnia, % of subjects ([5]; Double-blind Period): (3.2%)
- Insomnia, number of subjects ([5]; Double-blind Period): 5 subjects
- Irritability, % of subjects ([5]; Double-blind Period): (1.3%)
- Irritability, number of subjects ([5]; Double-blind Period): 2 subjects
- Nausea, % of subjects ([5]; Double-blind Period): (1.9%)
- Nausea, number of subjects ([5]; Double-blind Period): 3 subjects
- rate of discontinuation due to adverse events ([5]; Double-blind Period): 1.9%
- Anxiety, % of subjects ([5]; Open-label Period): (3.5%)
- Anxiety, number of subjects ([5]; Open-label Period): 11 subjects
- Constipation, % of subjects ([5]; Open-label Period): (4.2%)
- Constipation, number of subjects ([5]; Open-label Period): 13 subjects
- Dizziness, % of subjects ([5]; Open-label Period): (2.9%)
- Dizziness, number of subjects ([5]; Open-label Period): 9 subjects
- Dry mouth, % of subjects ([5]; Open-label Period): (4.2%)
- Dry mouth, number of subjects ([5]; Open-label Period): 13 subjects
- Headache, % of subjects ([5]; Open-label Period): (4.5%)
- Headache, number of subjects ([5]; Open-label Period): 14 subjects
- Insomnia, % of subjects ([5]; Open-label Period): (6.1%)
- Insomnia, number of subjects ([5]; Open-label Period): 19 subjects
- Irritability, % of subjects ([5]; Open-label Period): (3.2%)
- Irritability, number of subjects ([5]; Open-label Period): 10 subjects
- Nausea, % of subjects ([5]; Open-label Period): (7.1%)
- Nausea, number of subjects ([5]; Open-label Period): 22 subjects
- Any TEAE, % of subjects [5, 15]: (43.5)
- Any TEAE, number of subjects [5, 15]: 135 subjects
- mean MADRS reduction ([5]; Week 1): 3.6
- mean MADRS reduction ([5]; Week 2): 6.1
- rate of remission from depression (QIDS-SR-16 ≤5) ([5]; Week 6): 8.2%
- mean MADRS reduction ([5]; Week 6 (primary endpoint)): 9.4
- Change in MADRS Total Score at week 6 [6]: −12.1
- Change in MADRS Total Score over 6-week period (averaged) [6]: −8.8
- proportion of smokers with more than 50% reduction in expired carbon monoxide levels ([7]; 3-week period): 30.4%
- average reduction in cigarettes smoked per day ([7]; over the 3-week period, twice daily): 6.79 cigarettes per day
- Deaths, % of subjects ([8]; Safety Population): (2.0%
- Deaths, number of subjects ([8]; Safety Population): 1 subjects
- Deaths, number of subjects ([8]; Safety Population, listed as bupropion): one
- mean reduction from baseline in the CMAI total score ([8]; Week 5 (primary endpoint)): 10.0 points

Structure (SMILES): C[C@@H]1NC(C)(C)CO[C@@]1(O)c1cccc(Cl)c1 [(25,3S)-Hydroxybupropion]
- IC50 [9]: 12.5 µM

Structure (SMILES): C[C@H]1NC(C)(C)CO[C@]1(O)c1cccc(Cl)c1 [(R,R)-Hydroxybupropion]
- IC50 [9]: 8.2 µM

Structure (SMILES): CNCC[C@H](Oc1cccc2ccccc12)c1cccs1 [(S)-Duloxetine]
- IC50 [10]: 4.1 µM

Structure (SMILES): CN(C)CCCC1(c2ccc(F)cc2)OCc2cc(C#N)ccc21 (centres unmarked) [Citalopram]
- IC50 [2]: 14.1 µM

Structure (SMILES): CN(C)CC(c1ccc(O)cc1)C1(O)CCCCC1 (centres unmarked) [Desvenlafaxine]
- IC50 [2]: 97.3 µM

Structure (SMILES): COc1ccc2c(c1)[C@]13CCCC[C@@H]1[C@H](C2)N(C)CC3 [Dextromethorphan]
- mean plasma dextromethorphan/dextrorphan metabolic ratio [11]: remained unchanged
- Mean Trough Dextromethorphan Plasma Concentrations ([12]; Day 1): 0.7 ng/mL
- Mean Trough Dextromethorphan Plasma Concentrations ([12]; Day 5): 1.2 ng/mL
- Mean Trough Dextromethorphan Plasma Concentrations ([12]; Day 6): 1.3 ng/mL
- Mean Trough Dextromethorphan Plasma Concentrations ([12]; Day 7): 1.2 ng/mL
- Dextromethorphan Cavg ([12]; Day 8): 2.3 ng/mL
- Dextromethorphan Cmin ([12]; Day 8): 1.1 ng/mL
- Mean Trough Dextromethorphan Plasma Concentrations ([12]; Day 8): 1.1 ng/mL
- mean elimination half-life (T1/2 el) of dextromethorphan ([12]; Day 8): 6.6 h
- AUC(0-inf) ([12]; human, in vivo, 60 mg): 41.2 ng·h/mL
- Tmax ([12]; human, in vivo, 60 mg): 2.3 h
- concentration at 0 h ([12]; human, in vivo, 60 mg): 1.2 ng/mL
- concentration at 1 h ([12]; human, in vivo, 60 mg): 2.4 ng/mL
- concentration at 2 h ([12]; human, in vivo, 60 mg): 3.6 ng/mL
- concentration at 3 h ([12]; human, in vivo, 60 mg): 3.6 ng/mL
- concentration at 4 h ([12]; human, in vivo, 60 mg): 3.3 ng/mL
- concentration at 6 h ([12]; human, in vivo, 60 mg): 2.5 ng/mL
- concentration at 8 h ([12]; human, in vivo, 60 mg): 1.9 ng/mL
- concentration at 12 h ([12]; human, in vivo, 60 mg): 1.1 ng/mL
- concentration at 24 h ([12]; human, in vivo, 60 mg): 0.4 ng/mL
- concentration at 36 h ([12]; human, in vivo, 60 mg): 0.1 ng/mL
- AUC(0-t) ([12]; human, in vivo, 60 mg, Dextromethorphan AUC0-12, Day 1): 20.1 ng·h/mL
- AUC(0-t) ([12]; human, in vivo, 60 mg, Dextromethorphan AUC0-12, Day 8): 28.1 ng·h/mL
- AUC(0-t) ([12]; human, in vivo, 60 mg, Dextromethorphan AUC0-24, Day 8): 37.1 ng·h/mL
- Cmax ([12]; human, in vivo, 60 mg, Day 1): 3 ng/mL
- Cmax ([12]; human, in vivo, 60 mg, Day 8): 3.8 ng/mL

Structure (SMILES): CC(NC(C)(C)C)C(O)c1cccc(Cl)c1 (centres unmarked) [Erythrohydroxybupropion]
- IC50 [9]: 1.4 µM
- average plasma concentration [12]: ≥ 20 ng/mL

Structure (SMILES): CN(C)CCC[C@@]1(c2ccc(F)cc2)OCc2cc(C#N)ccc21 [Escitalopram]
- IC50 [2]: 17.1 µM

Structure (SMILES): COCCCC/C(=N\OCCN)c1ccc(C(F)(F)F)cc1 [Fluvoxamine]
- IC50 [2]: 6.5 µM

Structure (SMILES): C[C@H](NC(C)(C)C)[C@@H](O)c1cccc(Cl)c1 [Threohydroxybupropion]
- IC50 [9]: 3.9 µM
- average plasma concentration [12]: ≥ 100 ng/mL

Structure (SMILES): COc1ccc(C(CN(C)C)C2(O)CCCCC2)cc1 (centres unmarked) [Venlafaxine]
- IC50 [13]: 27.7 µM

Structure (SMILES): C[C@H]1NC(C)(C)CO[C@]1(O)c1cccc(Cl)c1 [hydroxybupropion]
- average plasma concentration [12]: ≥ 200 ng/mL
